# Data published in patent EP4635500A1, “THERAPEUTIC AGENT FOR BACTERIAL INFECTION” (Sumitomo Pharma Co., Ltd., priority 2022, dated 2024).
# Read-outs that look alike come from different tables or passages of the source.
# System: Enterobacterales
# Assay: MIC, broth microdilution, CDC/FDA Antibiotic Resistance Isolate Bank (Example 7, Tables 8, 11, 12)
# Type: cell-based
structure (smiles),measurement,setting,value
CN(C)c1cc(NC(=O)CNC(C)(C)C)c(O)c2c1C[C@H]1C[C@H]3[C@H](N(C)C)C(=O)C(C(N)=O)=C(O)[C@@]3(O)C(=O)C1=C2O [Tigecyeline],MIC,"Citrobacter freundii, KUB No. 5654, AR Bank # 157, read-out: MIC",0.5 µg/mL
same,MIC,"Enterobacter cloacae, Enterobacter cloacae KUB No. 5792, AR Bank #448",1 µg/mL
same,MIC,"Enterobacter cloacae, Enterobacter cloacae KUB No. 5807, AR Bank #501",1 µg/mL
same,MIC,"Enterobacter cloacae, Enterobacter cloacae KUB No. 5808, AR Bank #502",4 µg/mL
same,MIC,"Enterobacter cloacae, Enterobacter cloacae group, KUB No. 5629, AR Bank # 132",0.5 µg/mL
same,MIC,"Enterobacter cloacae, KUB No. 5529, AR Bank# 32",1 µg/mL
same,MIC,"Enterobacter cloacae, KUB No. 5535, AR Bank# 38",4 µg/mL
same,MIC,"Enterobacter cloacae, KUB No. 5547, AR Bank# 50",0.25 µg/mL
same,MIC,"Enterobacter cloacae, KUB No. 5550, AR Bank# 53",1 µg/mL
same,MIC,"Enterobacter cloacae, KUB No. 5557, AR Bank# 60",0.25 µg/mL
same,MIC,"Enterobacter cloacae, KUB No. 5562, AR Bank # 65",0.5 µg/mL
same,MIC,"Enterobacter cloacae, KUB No. 5569, AR Bank # 72",2 µg/mL
same,MIC,"Enterobacter cloacae, KUB No. 5570, AR Bank # 73",1 µg/mL
same,MIC,"Enterobacter cloacae, KUB No. 5590, AR Bank # 93",0.5 µg/mL
same,MIC,"Enterobacter cloaccae, KUB No. 5651, AR Bank # 154",0.5 µg/mL
same,MIC,"Enterobacter clooreae, KUB No. 5633, AR Bank # 136",2 µg/mL
same,MIC,"Escherichia coli, Escherichia coli KUB No. 5783, AR Bank #437",1 µg/mL
same,MIC,"Escherichia coli, Escherichia coli KUB No. 5794, AR Bank #450",0.5 µg/mL
same,MIC,"Escherichia coli, Escherichia coli KUB No. 5795, AR Bank #451",0.5 µg/mL
same,MIC,"Escherichia coli, Escherichia coli KUB No. 5796, AR Bank #452",0.5 µg/mL
same,MIC,"Escherichia coli, Escherichia coli KUB No. 5803, AR Bank #861",0.25 µg/mL
same,MIC,"Escherichia coli, KUB No. 5558, AR Bank # 61",0.25 µg/mL
same,MIC,"Escherichia coli, KUB No. 5564, AR Bank # 67",0.25 µg/mL
same,MIC,"Escherichia coli, KUB No. 5566, AR Bank # 69",0.25 µg/mL
same,MIC,"Escherichia coli, KUB No. 5574, AR Bank # 77",0.12 µg/mL
same,MIC,"Escherichia coli, KUB No. 5578, AR Bank # 81",0.12 µg/mL
same,MIC,"Escherichia coli, KUB No. 5581, AR Bank # 84",0.12 µg/mL
same,MIC,"Escherichia coli, KUB No. 5582, AR Bank # 85",0.25 µg/mL
same,MIC,"Escherichia coli, KUB No. 5583, AR Bank # 86",0.5 µg/mL
same,MIC,"Escherichia coli, KUB No. 5586, AR Bank # 89",0.25 µg/mL
same,MIC,"Escherichia coli, KUB No. 5601, AR Bank # 104",0.12 µg/mL
same,MIC,"Escherichia coli, KUB No. 5611, AR Bank # 114",0.12 µg/mL
same,MIC,"Escherichia coli, KUB No. 5615, AR Bank # 118",0.12 µg/mL
same,MIC,"Escherichia coli, KUB No. 5616, AR Bank # 119",0.5 µg/mL
same,MIC,"Escherichia coli, KUB No. 5625, AR Bank # 128",0.12 µg/mL
same,MIC,"Escherichia coli, KUB No. 5634, AR Bank # 137",0.5 µg/mL
same,MIC,"Escherichia coli, KUB No. 5646, AR Bank # 149",0.25 µg/mL
same,MIC,"Escherichia coli, KUB No. 5647, AR Bank # 150",0.25 µg/mL
same,MIC,"Escherichia coli, KUB No. 5648, AR Bank # 151",0.25 µg/mL
same,MIC,"Escherichia coli, KUB No. 5659, AR Bank # 162",0.5 µg/mL
same,MIC,"Klebsiella aerogenes, Enterobacter aerogenes, KUB No. 5559, AR Bank # 62",2 µg/mL
same,MIC,"Klebsiella aerogenes, Enterobacter aerogenes, KUB No. 5571, AR Bank # 74",0.25 µg/mL
same,MIC,"Klebsiella aerogenes, Enterobacter aerogenes, KUB No. 5658, AR Bank # 161",1 µg/mL
same,MIC,"Klebsiella oxytoca, KUB No. 5568, AR Bank # 71",1 µg/mL
same,MIC,"Klebsiella oxytoca, KUB No. 5644, AR Bank # 147",0.5 µg/mL
same,MIC,"Klebsiella ozaenae, KUB No. 5548, AR Bank# 51",1 µg/mL
same,MIC,"Klebsiella ozaenae, KUB No. 5593, AR Bank # 96",0.5 µg/mL
same,MIC,"Klebsiella pneumoniae, KUB No. 55, AR Bank# 47",0.5 µg/mL
same,MIC,"Klebsiella pneumoniae, KUB No. 5531, AR Bank# 34",0.5 µg/mL
same,MIC,"Klebsiella pneumoniae, KUB No. 5536, AR Bank# 39",1 µg/mL
same,MIC,"Klebsiella pneumoniae, KUB No. 5537, AR Bank# 40",2 µg/mL
same,MIC,"Klebsiella pneumoniae, KUB No. 5538, AR Bank# 41",1 µg/mL
same,MIC,"Klebsiella pneumoniae, KUB No. 5540, AR Bank# 43",0.5 µg/mL
same,MIC,"Klebsiella pneumoniae, KUB No. 5541, AR Bank# 44",0.5 µg/mL
same,MIC,"Klebsiella pneumoniae, KUB No. 5543, AR Bank# 46",2 µg/mL
same,MIC,"Klebsiella pneumoniae, KUB No. 5546, AR Bank# 49",4 µg/mL
same,MIC,"Klebsiella pneumoniae, KUB No. 5563, AR Bank # 66",2 µg/mL
same,MIC,"Klebsiella pneumoniae, KUB No. 5565, AR Bank # 68",2 µg/mL
same,MIC,"Klebsiella pneumoniae, KUB No. 5572, AR Bank # 75",2 µg/mL
same,MIC,"Klebsiella pneumoniae, KUB No. 5573, AR Bank # 76",0.25 µg/mL
